Patent US7405181B2, “Bio-fertilizer composition for promoting growth or orchid plants and application” (National Taiwan University, priority 2005, dated 2008)

How the values were obtained:
Phalaenopsis amabilis = experiment: Flowering rates with bio-fertilizer and plant growth substance; type: in vivo; conditions: room temperature
Protocol: (§1) Phalaenopsis amabili and Doritaenopsis casablanca Joy×Phalaenopsis taida Pinlong are treated with either bio-fertilizer composition Mb or plant growth regulators Gibberellic Acid (GA3), or both. The flowering rates are observed after incubation.

[1] = system: Doritaenopsis casablanca Joy × Phalaenopsis taida Pinlong; experiment: as above; type: in vivo; conditions: room temperature
Protocol: as §1

SMILES: C=C1C[C@]23C[C@@]1(O)CC[C@H]2[C@@]12C=C[C@H](O)[C@@](C)(C(=O)O1)[C@H]2[C@@H]3C(=O)O [NM + GA3, Gibberellic Acid]
- flowering rate (Phalaenopsis amabilis): 75%
- flowering rate [1]: 71%
